Patent US20140303092A1 (CHIMERIX, INC., priority 2011, published 2014)

Test: Study HDP-CDV-201: safety and tolerability (adverse events, laboratory abnormalities, discontinuations)
Assay type: in vivo, human (adult allogeneic HSCT recipients)
Settings: Cohort 4A
Experimental: Clinical Studies of HDP-CDV were performed and described in detail in the following Examples. For example, HDP-CDV-201 is a placebo-controlled, dose-escalating trial in HSCT CMV (R+) recipients, evaluating the ability of HDP-CDV to prevent or control CMV infection was carried out. Five cohorts were established in which participants or subjects received either placebo or the HDP-CDV orally, in doses ranging from 40 mg weekly (QW) to 200 mg twice weekly (BIW). Subjects who were post-HSCT were enrolled at the time of engraftment and randomized to HDP-CDV or placebo (3 to 1 ratio) and received blinded therapy until approximately 100 day post-transplantation. HDP-CDV doses were 40 mg QW, 100 mg QW, 200 mg QW, 200 mg BIW and 100 mg BIW. Escalation to the next dose was decided by the data monitoring committee after review of the safety data from the previous Cohort. Subjects who developed CMV disease or CMV infection requiring pre-emptive therapy with local standard of care were discontinued from blinded therapy and followed for 4 weeks. Subjects who completed treatment with blinded therapy were followed for 8 weeks post-therapy.
Data from Study HDP-CDV-201 also provided characterization of the safety and tolerability profile of HDP-CDV when administered for the prevention or control of CMV infection in high risk (R^+) post-HSCT adult subjects.
The Safety population (SAFETY) included all randomized subjects who took at least one dose of study treatment. This population was used to summarize safety outcomes based on the treatment actually received, in cases where a subject was treated contrary to the randomization schedule.
The safety and tolerability profile of HDP-CDV, including subject demographics and Baseline characteristics; the AE profile; and laboratory abnormalities of interest were analyzed in the cohorts followed in this investigation.
Subjects completing the treatment period received a full course of study medication; those completing the entire study attended visits through 8 weeks of follow up. Subjects who discontinued treatment may have done so for protocol specified reasons (e.g. development of clinically significant CMV infection requiring preemptive treatment with excluded anti-CMV medications) or for other reasons (e.g., withdrawal, adverse events, loss to follow-up). The disposition of subjects in Study HDP-CDV-201 during the double-blind, placebo-controlled treatment period (through Week 11) is listed by dosing Cohort in TABLE 23.
Adverse events were examined by severity to ensure that all safety signals were identified in this study population. Because of the frequency of events in HSCT recipients, particular attention was given to evaluation of Grade 3 […], 4 (severe), and 5 (fatal) adverse events.
Only those preferred terms for which at least one Grade 3 or higher event was experienced in any treatment group are listed. Cytomegalovirus-related AEs are excluded from this analysis.
HDP-CDV is a lipid conjugate of CDV. Because CDV is known to have adverse effects on renal function and bone marrow, decreased GFR and persistent neutropenia were identified as AEs of special interest. Key renal and hematological (TABLE 30) laboratory parameters were measured and listed below by Study HDP-CDV-201 treatment groups. TABLE 30 includes abnormal levels of serum creatinine, neutrophils, platelets, WBCs, and hemoglobin and includes data at Screening and during the treatment period.
A common metric for unit based dosing of medications is by weight (mg/kg). When the distribution of weights was examined for all subjects participating in the study, the median was 78 kg and the lower 25th percentile weight was approximately 65 kg, which translates to a cut-off of ˜3 mg/kg for a 200 mg total weekly dose. Based upon this approach, a cut-off of 3 mg/kg was used to assess the frequency of diarrhea and associated GI AEs reported for the subjects in Cohorts 3 or 4a (TABLE 40).

Q: Which results are given for CCCCCCCCCCCCCCCCOCCCOP(=O)(O)COC(CO)Cn1ccc(N)nc1=O (stereo not drawn) [HDP-CDV]?
A: Intensity of Gastrointestinal AEs, Grade 1, subjects (100 mg BIW): 12 (24.0%); Intensity of Gastrointestinal AEs, Grade 2, subjects (100 mg BIW): 17 (34.0%); Intensity of Gastrointestinal AEs, Grade 3, subjects (100 mg BIW): 10 (20.0%); Intensity of Gastrointestinal AEs, Grade 4, subjects (100 mg BIW): 1 (2.0%); Intensity of Gastrointestinal AEs, Grade 5, subjects (100 mg BIW): 0; Serum ALT level, Median fold increase from Baseline at Follow-up Week 1 (100 mg BIW): 1.52 fold; Serum ALT level, Median fold increase from Baseline at Follow-up Week 4 (100 mg BIW): 1.11 fold; Serum ALT level, Peak Median fold increase from Baseline (100 mg BIW): 2.86 fold; Subjects completed study (100 mg BIW): 25 (50.0%) n (%); TEAE Abdominal pain Grade 2, subjects (100 mg BIW): 1 (2.0%); TEAE Abdominal pain Grade 3, subjects (100 mg BIW): 1 (2.0%); TEAE Abdominal pain Grade 4, subjects (100 mg BIW): 0; TEAE Abdominal pain Grade 5, subjects (100 mg BIW): 0; TEAE Abdominal pain Overall Frequency, subjects (100 mg BIW): 13 (26.0%); TEAE Diarrhea Grade 2, subjects (100 mg BIW): 6 (12.0%); TEAE Diarrhea Grade 3, subjects (100 mg BIW): 9 (18.0%); TEAE Diarrhea Grade 4, subjects (100 mg BIW): 0; TEAE Diarrhea Grade 5, subjects (100 mg BIW): 0; TEAE Diarrhea Overall Frequency, subjects (100 mg BIW): 26 (52.0%); TEAE Hypokalaemia Grade 2, subjects (100 mg BIW): 2 (4.0%); TEAE Hypokalaemia Grade 3, subjects (100 mg BIW): 2 (4.0%); TEAE Hypokalaemia Grade 4, subjects (100 mg BIW): 0; TEAE Hypokalaemia Grade 5, subjects (100 mg BIW): 0; TEAE Hypokalaemia, subjects (100 mg BIW): 8 (16.0%); TEAE Nausea Grade 2, subjects (100 mg BIW): 9 (18.0%); TEAE Nausea Grade 3, subjects (100 mg BIW): 2 (4.0%); TEAE Nausea Grade 4, subjects (100 mg BIW): 0; TEAE Nausea Grade 5, subjects (100 mg BIW): 0; TEAE Nausea Overall Frequency, subjects (100 mg BIW): 17 (34.0%); TEAE Vomiting Grade 2, subjects (100 mg BIW): 8 (16.0%); TEAE Vomiting Grade 3, subjects (100 mg BIW): 2 (4.0%); TEAE Vomiting Grade 4, subjects (100 mg BIW): 0; TEAE Vomiting Grade 5, subjects (100 mg BIW): 0; TEAE Vomiting Overall Frequency, subjects (100 mg BIW): 22 (44.0%); Total Bilirubin (Screening) >1-[…] ULN, subjects (100 mg BIW): 3 (6.5%); Total Bilirubin (Screening) >1.5-3 × ULN, subjects (100 mg BIW): 2 (4.3%); Total Bilirubin (Screening) >3-10 × ULN, subjects (100 mg BIW): 0; Total Bilirubin (Screening) >10 × ULN, subjects (100 mg BIW): 0; Total Bilirubin (any time during therapy) >1-[…] ULN, subjects (100 mg BIW): 5 (10.0%); Total Bilirubin (any time during therapy) >1.5-3 × ULN, subjects (100 mg BIW): 3 (6.0%); Total Bilirubin (any time during therapy) >3-10 × ULN, subjects (100 mg BIW): 1 (2.0%); Total Bilirubin (any time during therapy) >10 × ULN, subjects (100 mg BIW): 0; excess of subjects with severe diarrhea as compared to placebo (100 mg BIW): 13%; incidence of diarrhea (100 mg BIW): 52%; TEAE Abdominal pain Grade 2, subjects (100 mg BIW >3 mg/k): 0; TEAE Abdominal pain Grade 3, subjects (100 mg BIW >3 mg/k): 0; TEAE Abdominal pain Grade 4, subjects (100 mg BIW >3 mg/k): 0; TEAE Abdominal pain Grade 5, subjects (100 mg BIW >3 mg/k): 0; TEAE Abdominal pain Overall Frequency, subjects (100 mg BIW >3 mg/k): 4 (40%); TEAE Diarrhea Grade 2, subjects (100 mg BIW >3 mg/k): 3 (30%); TEAE Diarrhea Grade 3, subjects (100 mg BIW >3 mg/k): 3 (30%); TEAE Diarrhea Grade 4, subjects (100 mg BIW >3 mg/k): 0; TEAE Diarrhea Grade 5, subjects (100 mg BIW >3 mg/k): 0; TEAE Diarrhea Overall Frequency, subjects (100 mg BIW >3 mg/k): 6 (60%); TEAE Hypokalaemia Grade 2, subjects (100 mg BIW >3 mg/k): 1 (10%); TEAE Hypokalaemia Grade 3, subjects (100 mg BIW >3 mg/k): 2 (20.0%); TEAE Hypokalaemia Grade 4, subjects (100 mg BIW >3 mg/k): 0; TEAE Hypokalaemia Grade 5, subjects (100 mg BIW >3 mg/k): 0; TEAE Hypokalaemia, subjects (100 mg BIW >3 mg/k): 3 (30%); TEAE Nausea Grade 2, subjects (100 mg BIW >3 mg/k): 3 (30%); TEAE Nausea Grade 3, subjects (100 mg BIW >3 mg/k): 1 (10%); TEAE Nausea Grade 4, subjects (100 mg BIW >3 mg/k): 0; TEAE Nausea Grade 5, subjects (100 mg BIW >3 mg/k): 0; TEAE Nausea Overall Frequency, subjects (100 mg BIW >3 mg/k): 4 (40%); TEAE Vomiting Grade 2, subjects (100 mg BIW >3 mg/k): 4 (40.0%); TEAE Vomiting Grade 3, subjects (100 mg BIW >3 mg/k): 1 (10.0%); TEAE Vomiting Grade 4, subjects (100 mg BIW >3 mg/k): 0; TEAE Vomiting Grade 5, subjects (100 mg BIW >3 mg/k): 0; TEAE Vomiting Overall Frequency, subjects (100 mg BIW >3 mg/k): 6 (60%); TEAE Abdominal pain Grade 2, subjects (100 mg BIW ≦3 mg/kg): 1 (2.5%); TEAE Abdominal pain Grade 3, subjects (100 mg BIW ≦3 mg/kg): 1 (2.5%); TEAE Abdominal pain Grade 4, subjects (100 mg BIW ≦3 mg/kg): 0; TEAE Abdominal pain Grade 5, subjects (100 mg BIW ≦3 mg/kg): 0; TEAE Abdominal pain Overall Frequency, subjects (100 mg BIW ≦3 mg/kg): 9 (22.5%); TEAE Diarrhea Grade 2, subjects (100 mg BIW ≦3 mg/kg): 3 (7.5%); TEAE Diarrhea Grade 3, subjects (100 mg BIW ≦3 mg/kg): 6 (15%); TEAE Diarrhea Grade 4, subjects (100 mg BIW ≦3 mg/kg): 0; TEAE Diarrhea Grade 5, subjects (100 mg BIW ≦3 mg/kg): 0; TEAE Diarrhea Overall Frequency, subjects (100 mg BIW ≦3 mg/kg): 20 (50%)^; TEAE Hypokalaemia Grade 2, subjects (100 mg BIW ≦3 mg/kg): 1 (2.5%); TEAE Hypokalaemia Grade 3, subjects (100 mg BIW ≦3 mg/kg): 0; TEAE Hypokalaemia Grade 4, subjects (100 mg BIW ≦3 mg/kg): 0; TEAE Hypokalaemia Grade 5, subjects (100 mg BIW ≦3 mg/kg): 0; TEAE Hypokalaemia, subjects (100 mg BIW ≦3 mg/kg): 5 (12.5%); TEAE Nausea Grade 2, subjects (100 mg BIW ≦3 mg/kg): 6 (15%); TEAE Nausea Grade 3, subjects (100 mg BIW ≦3 mg/kg): 1 (2.5%); TEAE Nausea Grade 4, subjects (100 mg BIW ≦3 mg/kg): 0; TEAE Nausea Grade 5, subjects (100 mg BIW ≦3 mg/kg): 0; TEAE Nausea Overall Frequency, subjects (100 mg BIW ≦3 mg/kg): 13 (32.5%); TEAE Vomiting Grade 2, subjects (100 mg BIW ≦3 mg/kg): 4 (10%); TEAE Vomiting Grade 3, subjects (100 mg BIW ≦3 mg/kg): 1 (2.5%); TEAE Vomiting Grade 4, subjects (100 mg BIW ≦3 mg/kg): 0; TEAE Vomiting Grade 5, subjects (100 mg BIW ≦3 mg/kg): 0; TEAE Vomiting Overall Frequency, subjects (100 mg BIW ≦3 mg/kg): 16 (40%)^; Abdominal pain leading to study drug withdrawal (100 mg BIW, N = 50): 1 (2.0%); All AEs leading to withdrawal (100 mg BIW, N = 50): 18 (36.0%); Diarrhoea leading to study drug withdrawal (100 mg BIW, N = 50): 2 (4.0%); Dyspepsia leading to study drug withdrawal (100 mg BIW, N = 50): 0%; Nausea leading to study drug withdrawal (100 mg BIW, N = 50): 1 (2.0%); TEAE ALT increased (100 mg BIW, N = 50): 9 (18.0%) n (%); TEAE AST increased (100 mg BIW, N = 50): 5 (10.0%) n (%); TEAE Abdominal pain (100 mg BIW, N = 50): 13 (26.0%) n (%); TEAE Abdominal pain, Upper (100 mg BIW, N = 50): 2 (4.0%) n (%); TEAE Acute GVHD (100 mg BIW, N = 50): 32 (64.0%) n (%); TEAE Acute Myeloid Leukemia recurrent (100 mg BIW, N = 50): 3 (6.0%) n (%); TEAE Acute Renal Failure (100 mg BIW, N = 50): 1 (2.0%) n (%); TEAE Anxiety (100 mg BIW, N = 50): 3 (6.0%) n (%); TEAE Arthralgias (100 mg BIW, N = 50): 3 (6.0%) n (%); TEAE Back Pain (100 mg BIW, N = 50): 4 (8.0%) n (%); TEAE Blood lactate dehydrogenase increased (100 mg BIW, N = 50): 4 (8.0%) n (%); TEAE Creatinine increased (100 mg BIW, N = 50): 7 (14.0%) n (%)
